What was measured:
[1] = biological target: GTPase KRas [G12D]/RAF proto-oncogene serine/threonine-protein kinase (Homo sapiens, UniProt P01116+P04049, G12D); assay: KRAS G12D/cRAF Binding Assay
Experimental: (§1) (1) Compound was prepared with DMSO, and diluted by 3-fold gradient with DMSO.(2) 0.1 μl of serial dilutions of the compound was added to a 384-well plate.(3) 5 μl of Tag2-KRASG12D>P at a specific concentration was added to the 384-well plate, and the plate was centrifuged at 1000 rpm for 1 min.(4) Then 5 μl of Tag1-cRAF at a specific concentration was added to the 384-well plate, and the plate was centrifuged at 1000 rpm for 1 min.(5) The plate was incubated at 25° C. for 15 min.(6) 10 μl of the mixture of anti-Tag1-Tb3+ and anti-Tag2-XL665 was added to the 384-well plate.(7) The plate was centrifuged at 1000 rpm for 1 min and incubated at 4° C. for 3 h.(8) The 665/615 nm ratio was read by a microplate reader.(9) Data analysis: The log value of the compound concentration was taken as the abscissa, and the 665/615 nm ratio was used as the ordinate, the data were analyzed by GraphPad Prism 8.0 software.

[2] = biological target: GTPase KRas (G12D) and Son of Sevenless Homolog 1 (SOS) (Homo sapiens, UniProt P01116+Q07889, G12D); assay: KRAS G12D/SOS1 Binding Assay
Experimental: as §1, with “Tag1-SOS1” for “Tag1-cRAF”

Row | IC50 [1] [nM] | IC50 [2] [nM] | SMILES
1 | 8.8 | 12.6 | C#Cc1c(F)ccc2cc(O)cc(-c3nc(OCCC(F)(F)F)c4c(N5CC6CCC(C6)C5)nc(OC[C@@]56CCCN5C[C@H](F)C6)nc4c3F)c12 [US20250034169, Compound 9]
2 | 8.7 | 13.9 | C#Cc1c(F)ccc2cc(O)cc(-c3nc(OCCOC)c4c(N5CC6CCC(C6)C5)nc(OC[C@@]56CCCN5C[C@H](F)C6)nc4c3F)c12 [US20250034169, Compound 10]
3 | 9.2 | 19.8 | [2H]C([2H])([2H])c1nc(-c2cc(O)cc3ccc(F)c(C#C)c23)c(F)c2nc(OC[C@@]34CCCN3C[C@H](F)C4)nc(N3CC4CCC(C4)C3)c12 [US20250034169, Compound 11]
4 | 9.7 | 10.3 | C#Cc1c(F)ccc2cc(O)cc(-c3nc(OCC)c4c(N5CC6CCC(C6)C5)nc(OC[C@@]56CCCN5C[C@H](F)C6)nc4c3F)c12 [US20250034169, Compound 12]
5 | 5.1 | 11.3 | C#Cc1c(F)ccc2cc(O)cc(-c3nc(C(=O)OCC)c4c(N5CC6CCC(C6)C5)nc(OC[C@@]56CCCN5C[C@H](F)C6)nc4c3F)c12 [US20250034169, Compound 13]
6 | 13.6 | 15.1 | C#Cc1c(F)ccc2cc(O)cc(-c3nc(C#CCC)c4c(N5CC6CCC(C6)C5)nc(OC[C@@]56CCCN5C[C@H](F)C6)nc4c3F)c12 [US20250034169, Compound 24]
7 | 15 | 16.8 | C#Cc1c(F)ccc2cc(O)cc(-c3nc(C#CCOC)c4c(N5CC6CCC(C6)C5)nc(OC[C@@]56CCCN5C[C@H](F)C6)nc4c3F)c12 [US20250034169, Compound 25]
8 | 11.1 | 11.5 | C#Cc1c(F)ccc2cc(O)cc(-c3nc(C#CC4CCCC4)c4c(N5CC6CCC(C6)C5)nc(OC[C@@]56CCCN5C[C@H](F)C6)nc4c3F)c12 [US20250034169, Compound 28]
9 | 14.7 | 15.9 | C#Cc1c(F)ccc2cc(O)cc(-c3nc(C#CCC(C)C)c4c(N5CC6CCC(C6)C5)nc(OC[C@@]56CCCN5C[C@H](F)C6)nc4c3F)c12 [US20250034169, Compound 29]
10 | 8.8 | 13.4 | C#Cc1c(F)ccc2cc(O)cc(-c3nc(C#CCCC(C)C)c4c(N5CC6CCC(C6)C5)nc(OC[C@@]56CCCN5C[C@H](F)C6)nc4c3F)c12 [US20250034169, Compound 30]
11 | 24.6 | 34.6 | C#Cc1c(F)ccc2cc(O)cc(-c3nc(C#CCCC#N)c4c(N5CC6CCC(C6)C5)nc(OC[C@@]56CCCN5C[C@H](F)C6)nc4c3F)c12 [US20250034169, Compound 31]
12 | 22 | 31.4 | C#Cc1c(F)ccc2cc(O)cc(-c3nc(C#C)c4c(N5CC6CC(C6)C5)nc(OC[C@@]56CCCN5C[C@H](F)C6)nc4c3F)c12 [US20250034169, Compound 41]
13 | 16.3 | 24.1 | C#Cc1c(F)ccc2cc(O)cc(-c3nc(C#C)c4c(N5CCC[C@@H](C)C5)nc(OC[C@@]56CCCN5C[C@H](F)C6)nc4c3F)c12 [US20250034169, Compound 43]
14 | 15.2 | 29.6 | C#Cc1c(F)ccc2cc(O)cc(-c3nc(C#C)c4c(N5C[C@H]6CC[C@@H]5C6)nc(OC[C@@]56CCCN5C[C@H](F)C6)nc4c3F)c12 [US20250034169, Compound 44]
15 | 6.9 | 15.7 | C#Cc1c(F)ccc2cc(O)cc(-c3nc(C#C)c4c(N5CC6CCC(C6)C5)nc(OC[C@]56CCCN5C[C@H](F)C6)nc4c3F)c12 [US20250034169, Compound 49]
16 | 19.1 | 36.2 | C#Cc1c(F)ccc2cc(O)cc(-c3nc(C#C)c4c(N5CC6CCC(C6)C5)nc(OC[C@H]5CCCN5C)nc4c3F)c12 [US20250034169, Compound 50]
17 | 11.1 | 20.8 | C#Cc1c(F)ccc2cc(O)cc(-c3nc(C#C)c4c(N5CC6CCC(C6)C5)nc(OC[C@@H]5CCCN5C)nc4c3F)c12 [US20250034169, Compound 51]
18 | 7.7 | 15.2 | C#Cc1c(F)ccc2cc(O)cc(-c3nc(C#C)c4c(N5C6CCCC5CC6)nc(OCC5(CN(C)C)CC5)nc4c3F)c12 [US20250034169, Compound 52]
19 | 4.3 | 14.6 | C#Cc1c(F)ccc2cc(O)cc(-c3nc(C#C)c4c(N5C6CCCC5CC6)nc(OCC5(CN6CCCCC6)CC5)nc4c3F)c12 [US20250034169, Compound 53]
20 | 9.8 | 14.8 | C#Cc1c(F)ccc2cc(O)cc(-c3nc(C#C)c4c(N5CC6CCC(C6)C5)nc(OCCC(F)(F)F)nc4c3F)c12 [US20250034169, Compound 55]
21 | 18.5 | 15.7 | C#Cc1c(F)ccc2cc(O)cc(-c3nc(C#C)c4c(N5CC6CCC(C6)C5)nc(OCC5CCCC5)nc4c3F)c12 [US20250034169, Compound 56]
22 | 9.9 | 18.5 | C#Cc1nc(-c2cc(O)cc3ccc(F)c(CC)c23)c(F)c2nc(OC[C@@]34CCCN3C[C@H](F)C4)nc(N3CC4CCC(C4)C3)c12 [US20250034169, Compound 65]
